The text below walks through data of patent US7786141B2 (Vertex Pharmaceuticals Incorporated, priority 2004, dated 2010).

One assay concerns the target T1, M1 muscarinic receptor (Homo sapiens, UniProt P11229).
T1 construct: expressed in transfected cells; host or cells: CHO (M1-CHO)
T1 sequence (P11229 1-460): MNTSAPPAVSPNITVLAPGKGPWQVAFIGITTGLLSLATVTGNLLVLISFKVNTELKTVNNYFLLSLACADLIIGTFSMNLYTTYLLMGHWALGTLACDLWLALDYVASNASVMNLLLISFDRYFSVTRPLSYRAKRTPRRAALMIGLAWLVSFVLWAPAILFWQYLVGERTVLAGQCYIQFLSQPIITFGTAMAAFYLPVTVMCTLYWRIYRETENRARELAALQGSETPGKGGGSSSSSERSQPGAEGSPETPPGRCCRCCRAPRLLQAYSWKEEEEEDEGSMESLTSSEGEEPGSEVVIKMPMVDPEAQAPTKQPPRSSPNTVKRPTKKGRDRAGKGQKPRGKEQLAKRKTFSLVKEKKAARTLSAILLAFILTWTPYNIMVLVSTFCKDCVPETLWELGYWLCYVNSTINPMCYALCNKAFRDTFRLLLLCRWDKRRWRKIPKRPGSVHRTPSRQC
Nature of the assay: Functional mobilization of intracellular calcium (FLIPR) in M1-CHO cells. Format: cell-based. Conditions: Table 4; for Emax: 100% efficacy is the maximum response obtained with the Carbachol control; for M1 Activity: modulating M1 receptor. The method, boiled down:
(§1)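 Intracellular calcium rise is measured by FLIPR fluorescence over 60 sec in CHO cells carrying human M1 or M4 receptors. Compounds are tested alone as agonists, or pre-incubated 15 min (or co-applied) ahead of carbachol at its EC80 to detect inhibition.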
For orientation: A change in cytosolic calcium serves as a functional read-out for many receptors and channels.

For the next assay, the target named is T2, M4 muscarinic receptor (Homo sapiens, UniProt P08173).
T2 construct: expressed in transfected cells; host or cells: CHO (M4-CHO)
T2 sequence (P08173 1-479): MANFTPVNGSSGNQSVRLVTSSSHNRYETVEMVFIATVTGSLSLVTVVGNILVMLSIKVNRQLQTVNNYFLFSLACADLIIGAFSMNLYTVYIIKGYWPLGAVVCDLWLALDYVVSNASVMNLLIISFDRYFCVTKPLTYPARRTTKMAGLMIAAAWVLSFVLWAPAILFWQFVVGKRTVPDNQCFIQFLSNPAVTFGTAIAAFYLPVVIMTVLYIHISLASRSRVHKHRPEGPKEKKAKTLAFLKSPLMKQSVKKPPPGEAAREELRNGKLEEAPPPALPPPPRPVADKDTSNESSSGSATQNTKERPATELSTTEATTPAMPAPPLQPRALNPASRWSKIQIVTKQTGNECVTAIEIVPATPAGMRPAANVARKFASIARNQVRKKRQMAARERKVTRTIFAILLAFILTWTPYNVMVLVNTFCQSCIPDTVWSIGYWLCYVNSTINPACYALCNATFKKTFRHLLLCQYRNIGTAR
Kind of assay: Functional mobilization of intracellular calcium (FLIPR) in M4-CHO cells. In kind it is cell-based. The note with it: Table 4; for Emax: 100% efficacy is the maximum response obtained with the Carbachol control; for M4 Activity: modulating M4 receptor. The method, boiled down:
as §1

Take `COc1ccc(CC(=O)N2CCC(N3CCC4(CC3)CN(C(=O)N(C)C)c3ccc(F)cc34)CC2)cc1` [compound 500]: at M1 muscarinic receptor, the Emax is below 25% and the “M1 Activity” value was “x (activity was measured to be greater than 5.0 μM)”. In addition, at M4 muscarinic receptor, the Emax is below 25% and the “M4 Activity” value is given as “x (activity was measured to be greater than 5.0 μM)”.

Take `CCOC(=O)N1CC[C@@H](CN2CCC3(CC2)CN(C(C)=O)c2cccc(C)c23)C1` [compound 502]: at M1 muscarinic receptor, the Emax lay in the range of 25 to 100% and the “M1 Activity” value is recorded as “xxx (activity was measured to be less than 2.0 μM)”. Moreover, on M4 muscarinic receptor, the Emax was 25 to 100%; the “M4 Activity” value was “xx (activity was measured to be between 2.0 μM and 5.0 μM)”.

As for `CCOC(=O)N1C2CCC1CC(N1CCC3(CC[C@H](NC(=O)N(C)C)c4ccccc43)CC1)C2` (some centres unmarked) [compound 503], at M1 muscarinic receptor, the maximal response (Emax) was 25 to 100% and the “M1 Activity” value was “xxx (activity was measured to be less than 2.0 μM)”. Further, on M4 muscarinic receptor, the Emax was 25 to 100% and the “M4 Activity” value was “xxx (activity was measured to be less than 2.0 μM)”.

For the molecule `CC(=O)N[C@H]1CCC2(CCN(C3CC(C)(C)CC(C)(C)C3)CC2)c2ccccc21` [compound 504], at M1 muscarinic receptor, the Emax is below 25% and the “M1 Activity” value was “x (activity was measured to be greater than 5.0 μM)”. Further, at M4 muscarinic receptor, the Emax is below 25% and the “M4 Activity” value is given as “x (activity was measured to be greater than 5.0 μM)”.

Consider `CC(=O)N1CC2(CCN(C3CCN(c4cnccn4)CC3)CC2)c2ccccc21` [compound 505], for which, on M1 muscarinic receptor, the maximal response (Emax) was in the range of 25 to 100% and the “M1 Activity” value is “xxx (activity was measured to be less than 2.0 μM)”. At M4 muscarinic receptor, the Emax was 25 to 100% and the “M4 Activity” value is reported as “xxx (activity was measured to be less than 2.0 μM)”.

As for `CC(=O)N[C@@H]1CCC2(CCN([C@@H]3C[C@H]4CC[C@@H]3C4)CC2)c2ccccc21` [compound 506], at M1 muscarinic receptor, the Emax is below 25% and the “M1 Activity” value is “x (activity was measured to be greater than 5.0 μM)”. On M4 muscarinic receptor, the maximum response (Emax) lay within 25 to 100%; the “M4 Activity” value was “xx (activity was measured to be between 2.0 μM and 5.0 μM)”.

Consider `CCCOC(=O)N1C2CCC1CC(N1CCC3(CC1)CN(C(C)=O)c1ccccc13)C2` (centres unmarked) [compound 507], for which, at M1 muscarinic receptor, the maximal response (Emax) lay within 25 to 100% and the “M1 Activity” value was “xxx (activity was measured to be less than 2.0 μM)”. Moreover, on M4 muscarinic receptor, the Emax was in the range of 25 to 100% and the “M4 Activity” value is on record as “xxx (activity was measured to be less than 2.0 μM)”.

For `C/C=C/C(=O)N1CC2(CCN(C3CCN(C(=O)OCC)CC3)CC2)c2cc(F)ccc21` [compound 508], at M1 muscarinic receptor, the maximal effect (Emax) is 25 to 100% and the “M1 Activity” value is given as “xxx (activity was measured to be less than 2.0 μM)”. Further, on M4 muscarinic receptor, the Emax is 25 to 100% and the “M4 Activity” value is given as “xxx (activity was measured to be less than 2.0 μM)”.

In the case of `CCOC(=O)N1CCC(N2CCC3(CC2)CN(C(C)=O)c2c(C)cccc23)CC1` [compound 509], on M1 muscarinic receptor, the Emax was in the range of 25 to 100%; the “M1 Activity” value is “xx (activity was measured to be between 2.0 μM and 5.0 μM)”. For the same molecule, on M4 muscarinic receptor, the Emax was in the range of 25 to 100% and the “M4 Activity” value is on record as “x (activity was measured to be greater than 5.0 μM)”.

With `CCCOC(=O)N1CC[C@H](CN2CCC3(CC2)CN(C(=O)N(C)C)c2ccc(F)cc23)C1` [compound 510], on M1 muscarinic receptor, the Emax lay in the range of 25 to 100% and the “M1 Activity” value is given as “xxx (activity was measured to be less than 2.0 μM)”. At M4 muscarinic receptor, the maximal response (Emax) is 25 to 100% and the “M4 Activity” value is reported as “xxx (activity was measured to be less than 2.0 μM)”.

For `COc1cc2c(cc1OC)C1(CCN(CC3CCCCC3)CC1)C[C@@H]2NC(C)=O` [compound 511], at M1 muscarinic receptor, the Emax is below 25% and the “M1 Activity” value is on record as “x (activity was measured to be greater than 5.0 μM)”. Moreover, at M4 muscarinic receptor, the Emax is below 25% and the “M4 Activity” value was “x (activity was measured to be greater than 5.0 μM)”.

On to `COC1CCCCC1N1CCC2(CC1)CN(C(C)=O)c1ccc(F)cc12` (centres unmarked) [compound 512], for which, at M1 muscarinic receptor, the Emax is below 25% and the “M1 Activity” value was “x (activity was measured to be greater than 5.0 μM)”. At M4 muscarinic receptor, the Emax was below 25% and the “M4 Activity” value was “x (activity was measured to be greater than 5.0 μM)”.

`CCOC(=O)N1CCC(N2CCC3(CC2)CN(C2CCC4(CC2)OCCO4)c2ccccc23)CC1` [compound 513]: at M1 muscarinic receptor, the Emax lay within 25 to 100% and the “M1 Activity” value is reported as “xxx (activity was measured to be less than 2.0 μM)”. For the same molecule, at M4 muscarinic receptor, the Emax lay within 25 to 100% and the “M4 Activity” value was “xxx (activity was measured to be less than 2.0 μM)”.

For the molecule `CC(=O)N[C@H]1CCC2(CCN(CC3CC3)CC2)c2ccccc21` [compound 514], at M1 muscarinic receptor, the Emax was 25 to 100%; the “M1 Activity” value was “xx (activity was measured to be between 2.0 μM and 5.0 μM)”. Also, on M4 muscarinic receptor, the Emax lay within 25 to 100% and the “M4 Activity” value is listed as “x (activity was measured to be greater than 5.0 μM)”.

With `CC#CC(C)OC(=O)N1C2CCC1CC(N1CCC3(CC1)CN(C(C)=O)c1ccccc13)C2` (centres unmarked) [compound 515], on M1 muscarinic receptor, the Emax lay within 25 to 100% and the “M1 Activity” value is given as “xxx (activity was measured to be less than 2.0 μM)”. For the same molecule, at M4 muscarinic receptor, the Emax was in the range of 25 to 100% and the “M4 Activity” value is reported as “xxx (activity was measured to be less than 2.0 μM)”.

In the case of `C#CCOC(=O)N1C2CCC1CC(N1CCC3(CC1)CN(C(C)=O)c1ccccc13)C2` (centres unmarked) [compound 516], at M1 muscarinic receptor, the Emax is 25 to 100% and the “M1 Activity” value is recorded as “xxx (activity was measured to be less than 2.0 μM)”. On M4 muscarinic receptor, the Emax was in the range of 25 to 100% and the “M4 Activity” value is reported as “xxx (activity was measured to be less than 2.0 μM)”.

For `CCOC(=O)N1CCC(N2CCC3(CC2)CN(c2ccncc2)c2ccc(F)cc23)CC1` [compound 517], on M1 muscarinic receptor, the Emax lay within 25 to 100% and the “M1 Activity” value is “xxx (activity was measured to be less than 2.0 μM)”. For the same molecule, at M4 muscarinic receptor, the Emax was 25 to 100% and the “M4 Activity” value is “xxx (activity was measured to be less than 2.0 μM)”.

Regarding `CCCOC(=O)N1CC[C@H](CN2CCC3(CC2)CN(C(C)=O)c2ccccc23)C1` [compound 518], at M1 muscarinic receptor, the Emax was below 25% and the “M1 Activity” value is recorded as “x (activity was measured to be greater than 5.0 μM)”. On M4 muscarinic receptor, the maximal effect (Emax) was below 25% and the “M4 Activity” value is given as “x (activity was measured to be greater than 5.0 μM)”.

For `O=C(N[C@H]1CC2(CCN(C[C@@H]3C[C@H]4C=C[C@H]3C4)CC2)c2ccccc21)c1ccoc1` [compound 519], at M1 muscarinic receptor, the Emax was 25 to 100% and the “M1 Activity” value was “xxx (activity was measured to be less than 2.0 μM)”. Moreover, at M4 muscarinic receptor, the Emax was below 25% and the “M4 Activity” value was “x (activity was measured to be greater than 5.0 μM)”.

For the molecule `CN(C)C(=O)N1CC2(CCN(C3CCN(C(=O)[C@H]4CCCO4)CC3)CC2)c2cc(F)ccc21` [compound 520], on M1 muscarinic receptor, the Emax lay within 25 to 100% and the “M1 Activity” value is recorded as “x (activity was measured to be greater than 5.0 μM)”. Also, on M4 muscarinic receptor, the Emax is below 25% and the “M4 Activity” value is on record as “x (activity was measured to be greater than 5.0 μM)”.

`COc1cc2c(cc1OC)C1(CCN(C3CCCCC3)CC1)C[C@@H]2NC(C)=O` [compound 521]: on M1 muscarinic receptor, the Emax is below 25% and the “M1 Activity” value is on record as “x (activity was measured to be greater than 5.0 μM)”. In addition, on M4 muscarinic receptor, the Emax is below 25% and the “M4 Activity” value was “x (activity was measured to be greater than 5.0 μM)”.

Take `CCOC(=O)N1CCC(N2CCC3(CC2)CN(C(=O)C(=O)CC)c2ccc(F)cc23)CC1` [compound 522]: on M1 muscarinic receptor, the Emax is above 100% and the “M1 Activity” value is on record as “xxx (activity was measured to be less than 2.0 μM)”. At M4 muscarinic receptor, the Emax fell in the range of 25 to 100% and the “M4 Activity” value is given as “xxx (activity was measured to be less than 2.0 μM)”.

Regarding `O=C(N[C@H]1CC2(CCN(C3C[C@H]4CC[C@@H]3C4)CC2)c2ccccc21)N1CCCCC1` (some centres unmarked) [compound 525], on M1 muscarinic receptor, the Emax is below 25% and the “M1 Activity” value is on record as “x (activity was measured to be greater than 5.0 μM)”. Also, on M4 muscarinic receptor, the Emax was in the range of 25 to 100% and the “M4 Activity” value is on record as “xxx (activity was measured to be less than 2.0 μM)”.

What is called Emax is the maximal effect, on the per cent scale that the assay sets.
